Data published in patent US20120196791A1, “COMBINATION THERAPIES USING ANTIBACTERIAL AMINOGLYCOSIDE COMPOUNDS” (Achaogen, Inc., priority 2009, published 2012).
Where two headings read alike, the source gives them in different places.

Experiments:
Assay type in all cases: cell-based
[1] = test system: P. aeruginosa strains; assay: MIC by macrodilution
Text: (§1) “MIC”, which stands for minimum inhibitory concentration, refers to that concentration, in μg/mL, of a compound of this invention that inhibits the growth and/or proliferation of a strain of bacteria by at least 80% compared to an untreated control as determined by visual inspection of a liquid culture.
Synergy time-kill was used to test the activity of Example 1, alone and in combination with cefepime, doripenem, imipenem and piperacillin/tazobactam, against 10 P. aeruginosa strains. The 10 clinical isolates included 5 cefepime resistant, 5 doripenem resistant, 8 imipenem resistant, and 9 piperacillin/tazobactam resistant strains. MICs were determined by macrodilution and time-kill was used to verify the activity of all five agents alone. MICs were predetermined by macrodilution in cation-adjusted Mueller-Hinton broth (BBL Microbiology Systems, Cockeysville, Md.) according to standard methodology. All strains were tested by time-kill methodology with each compound alone according to standard methods. Strains were examined by PCR for genes encoding aminoglycoside modifying enzymes (AMEs). Cultures were initiated by adding 35-μL aliquots of suspensions into 5 mL of broth. Viability counts (100-μL aliquots) in synergy tests were performed at 0, 3, 6, 12, and 24 h in a shaking water bath at 35° C. with final inocula of between 5×10^5 and 5×10^6 CFU/mL. Only plates with 30 to 300 colonies were counted.

[2] = test system: S. aureus strains; assay: MIC by macrodilution
Text: as §1
Synergy time-kill was used to test the activity of Example 1, alone and in combination with daptomycin (DAP), ceftobiprole (BPR), and linezolid (LZD), against 25 S. aureus strains. 25 clinical isolates included 2 hVISA, 2 VISA, and 5 VRSA, 10 hospital acquired and 6 community acquired MRSA strains. MICs were determined by macrodilution and time-kill was used to verify the activity of all four agents alone. MICs were predetermined by macrodilution in cation-adjusted Mueller-Hinton broth (BBL Microbiology Systems, Cockeysville, Md.) according to standard methodology. Daptomycin susceptibility testing was performed in Mueller-Hinton broth adjusted to 50 μg/mL of calcium according to standard methodology. All strains were tested by time-kill methodology with each compound alone according to standard methods. Cultures were initiated by adding 35-μL aliquots of suspensions into 5 mL of broth. Viability counts (100-μL aliquots) in synergy tests were performed at 0, 3, 6, 12, and 24 h in a shaking water bath at 35° C. with final inocula of between 5×10^5 and 5×10^6 CFU/mL. Only plates with 30 to 300 colonies were counted.

[3] = test system: P. aeruginosa strains; assay: Synergy time-kill; conditions: with each drug tested, majority of isolates, 24 h
[4] = Pseudomonas aeruginosa, Strain 1, read-out: MIC
[5] = Pseudomonas aeruginosa, Strain 2, read-out: MIC
[6] = Pseudomonas aeruginosa, Strain 3, read-out: MIC
[7] = Pseudomonas aeruginosa, Strain 4, read-out: MIC
[8] = Pseudomonas aeruginosa, Strain 5, read-out: MIC
[9] = Pseudomonas aeruginosa, Strain 6, read-out: MIC
[10] = Pseudomonas aeruginosa, Strain 7, read-out: MIC
[11] = Pseudomonas aeruginosa, Strain 8, read-out: MIC
[12] = Pseudomonas aeruginosa, Strain 9, read-out: MIC
[13] = Pseudomonas aeruginosa, Strain 10, read-out: MIC
[14] = Pseudomonas aeruginosa, range over 10 P. aeruginosa strains, read-out: MICs of each agent alone

C[C@@H](O)[C@H]1C(=O)N2C(C(=O)O)=C(SCCN=CN)C[C@H]12 [Imipenem, imipenem]
MIC [1, 4]: 8 mg/L | MIC [1, 5]: 2 mg/L | MIC [1, 6]: 8 mg/L | MIC [1, 7]: 16 mg/L | MIC [1, 8]: 32 mg/L | MIC [1, 9]: 0.25 mg/L | MIC [1, 10]: 4 mg/L | MIC [1, 11]: 4 mg/L | MIC [1, 12]: 32 mg/L | MIC [1, 13]: 32 mg/L | MIC [1, 14]: 0.25 to 32 mg/L

CN[C@@H]1[C@@H](O)[C@@H](O[C@@H]2[C@@H](O)[C@H](O[C@H]3OC(CNCCO)=CC[C@H]3N)[C@@H](N)C[C@H]2NC(=O)[C@@H](O)CCN)OC[C@]1(C)O [Example 1, 6′-(2-Hydroxy-ethyl)-1-(4-amino-2(S)-hydroxy-butyryl)-sisomicin]
MIC ([2]; Strain 1, VRSA): 1.0 mg/L | MIC ([2]; Strain 2, VRSA): 0.5 mg/L | MIC ([2]; Strain 3, VRSA): 1.0 mg/L | MIC ([2]; Strain 4, VRSA): 2.0 mg/L | MIC ([2]; Strain 5, VRSA): 1.0 mg/L | MIC ([2]; Strain 6, CA-MRSA, PVL+): 4.0 mg/L | MIC ([2]; Strain 7, CA-MRSA, PVL+): 2.0 mg/L | MIC ([2]; Strain 8, CA-MRSA, PVL+): 4.0 mg/L | MIC ([2]; Strain 9, hVISA): 1.0 mg/L | MIC ([2]; Strain 10, hVISA): 1.0 mg/L | MIC ([2]; Strain 11, VISA): 4.0 mg/L | MIC ([2]; Strain 12, VISA): 4.0 mg/L | MIC ([2]; Strain 13, ATCC33591 HA-MRSA): 8.0 mg/L | MIC ([2]; Strain 14, HA-MRSA): 2.0 mg/L | MIC ([2]; Strain 15, HA-MRSA): 2.0 mg/L | MIC ([2]; Strain 16, HA-MRSA): 2.0 mg/L | MIC ([2]; Strain 17, HA-MRSA): 4.0 mg/L | MIC ([2]; Strain 18, HA-MRSA): 2.0 mg/L | MIC ([2]; Strain 19, HA-MRSA): 2.0 mg/L | MIC ([2]; Strain 20, HA-MRSA): 2.0 mg/L | MIC ([2]; Strain 21, HA-MRSA): 4.0 mg/L | MIC ([2]; Strain 22, HA-MRSA): 4.0 mg/L | MIC ([2]; Strain 23, CA-MRSA PVL+): 4.0 mg/L | MIC ([2]; Strain 24, CA-MRSA PVL+): 4.0 mg/L | MIC ([2]; Strain 25, CA-MRSA PVL neg): 2.0 mg/L | MICs of each agent alone ([2]; range over 25 S. aureus strains): 0.5 to 8 µg/mL | Example 1 concentration yielding synergy [3]: ¼ | MICs for strains with genes encoding AMEs ([1]; 3 strains: 2 ant(2″)-Ia, 1 aac(6′)-Ib): equivalent to strains lacking AMEs | MIC ([1]; Strain 1): 64 mg/L | MIC ([1]; Strain 2): 16 mg/L | MIC ([1]; Strain 3): 16 mg/L | MIC ([1]; Strain 4): 16 mg/L | MIC ([1]; Strain 5): 32 mg/L | MIC ([1]; Strain 6): 8 mg/L | MIC ([1]; Strain 7): 16 mg/L | MIC ([1]; Strain 8): 16 mg/L | MIC ([1]; Strain 9): 16 mg/L | MIC ([1]; Strain 10): 32 mg/L | MICs of each agent alone ([1]; range over 10 P. aeruginosa strains): 8 to 64 µg/mL

C[C@@H](O)[C@H]1C(=O)N2C(C(=O)O)=C(S[C@@H]3CN[C@H](CNS(N)(=O)=O)C3)[C@H](C)[C@H]12 [Doripenem, doripenem]
MIC [1, 4]: 2 mg/L | MIC [1, 5]: 0.25 mg/L | MIC [1, 6]: 4 mg/L | MIC [1, 7]: 2 mg/L | MIC [1, 8]: 8 mg/L | MIC [1, 9]: 0.5 mg/L | MIC [1, 10]: 8 mg/L | MIC [1, 11]: 2 mg/L | MIC [1, 12]: 32 mg/L | MIC [1, 13]: 8 mg/L | MIC [1, 14]: 0.25 to 32 mg/L
